Laboratory results reported in patent US6413958B2, “4-hydroxy-1,8-naphthyridine-3-carboxamides as antiviral agents” (Pharmacia & Upjohn Company, priority 2000, dated 2002).

What was measured:
[1] = target: T1, HCMV polymerase (Human cytomegalovirus, UniProt P08546); assay: HCMV polymerase assay (scintillation proximity assay, modified version); type: biochemical; settings: modified HCMV polymerase SPA; for IC50: compounds diluted in 100% DMSO, 4.5 mM DTT
T1 construct: made in house; host or cells: recombinant baculovirus-infected SF-9 cells
T1 sequence (P08546 whole entry): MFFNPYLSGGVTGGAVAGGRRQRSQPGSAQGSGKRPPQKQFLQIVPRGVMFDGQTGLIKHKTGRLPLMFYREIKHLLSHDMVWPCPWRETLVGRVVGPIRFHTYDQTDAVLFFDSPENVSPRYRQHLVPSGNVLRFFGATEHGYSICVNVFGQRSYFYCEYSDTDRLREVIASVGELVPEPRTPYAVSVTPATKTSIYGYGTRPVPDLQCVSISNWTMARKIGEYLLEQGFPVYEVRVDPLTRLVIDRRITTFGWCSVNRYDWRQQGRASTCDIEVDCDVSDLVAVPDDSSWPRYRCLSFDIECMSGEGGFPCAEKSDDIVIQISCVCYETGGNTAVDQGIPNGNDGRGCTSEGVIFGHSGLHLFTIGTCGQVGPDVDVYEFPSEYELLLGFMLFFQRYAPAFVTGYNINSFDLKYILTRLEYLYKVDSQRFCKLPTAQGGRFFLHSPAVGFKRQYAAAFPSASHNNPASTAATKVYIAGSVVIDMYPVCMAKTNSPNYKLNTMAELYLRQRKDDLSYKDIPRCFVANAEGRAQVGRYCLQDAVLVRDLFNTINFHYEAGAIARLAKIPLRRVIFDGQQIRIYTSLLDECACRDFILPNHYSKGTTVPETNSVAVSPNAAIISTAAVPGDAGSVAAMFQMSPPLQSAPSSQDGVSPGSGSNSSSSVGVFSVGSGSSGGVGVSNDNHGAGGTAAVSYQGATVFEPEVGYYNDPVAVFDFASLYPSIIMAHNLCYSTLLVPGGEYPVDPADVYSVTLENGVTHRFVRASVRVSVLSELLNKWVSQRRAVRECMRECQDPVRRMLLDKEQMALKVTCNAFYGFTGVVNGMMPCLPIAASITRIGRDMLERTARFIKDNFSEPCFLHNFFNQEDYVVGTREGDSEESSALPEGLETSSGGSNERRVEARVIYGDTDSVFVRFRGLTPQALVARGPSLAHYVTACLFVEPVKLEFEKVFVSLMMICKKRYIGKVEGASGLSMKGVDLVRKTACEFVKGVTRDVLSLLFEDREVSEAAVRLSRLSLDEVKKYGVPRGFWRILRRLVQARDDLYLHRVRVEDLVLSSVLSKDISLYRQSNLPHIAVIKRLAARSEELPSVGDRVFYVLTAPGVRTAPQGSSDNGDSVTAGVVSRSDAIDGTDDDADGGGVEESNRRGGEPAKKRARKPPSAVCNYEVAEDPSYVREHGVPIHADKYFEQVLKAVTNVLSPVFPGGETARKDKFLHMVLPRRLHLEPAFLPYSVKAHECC
Protocol: The HCMV polymerase assay is performed using a scintillation proximity assay (SPA) as described in several references, such as N. D. Cook, et al., Pharmaceutical Manufacturing International, pages 49-53 (1992); K. Takeuchi, Laboratory Practice, September issue (1992); U.S. Pat. No. 4,568,649 (1986); which are incorporated by reference herein. Reactions are performed in 96-well plates. The assay is conducted in 100 μl volume with 5.4 mM HEPES (pH 7.5), 11.7 mM KCl, 4.5 mM MgCl2, 0.36 mg/ml BSA, and 90 nM ^3H-dTTP. Assays are run with and without CHAPS, (3-[(3-cholamidopropyl)-dimethylammonio]-1-propane-sulfonate) at a final concentration of 2 mM. HCMV polymerase is diluted in enzyme dilution buffer containing 50% glycerol, 250 mM NaCl, 10 mM HEPES (pH 7.5), 100 μg/ml BSA, and 0.01% sodium azide. The HCMV polymerase, which is expressed in recombinant baculovirus-infected SF-9 cells and purified according to literature procedures, is added at 10% (or 10 μl) of the final reaction volume, i.e., 100 μl. Compounds are diluted in 50% DMSO and 10 μl are added to each well. Control wells contain an equivalent concentration of DMSO. Unless noted otherwise, reactions are initiated via the addition of 6 nM biotinylated poly(dA)-oligo(dT) template/primer to reaction mixtures containing the enzyme, substrate, and compounds of interest. Plates are incubated in a 25° C. or 37° C. H2O bath and terminated via the addition of 40 μl/reaction of 0.5 M EDTA (pH 8) per well. Reactions are terminated within the time-frame during which substrate incorporation is linear and varied depending upon the enzyme and conditions used, i.e., 30 min. for HCMV polymerase. Ten μl of streptavidin-SPA beads (20 mg/ml in PBS/10% glycerol) are added following termination of the reaction. Plates are incubated 10 min. at 37° C., then equilibrated to room temperature, and counted on a Packard Topcount. Linear regressions are performed and IC50's are calculated using computer software.
A modified version of the above HCMV polymerase assay is performed as described above, but with the following changes: Compounds are diluted in 100% DMSO until final dilution into assay buffer. In the previous assay, compounds are diluted in 50% DMSO. 4.5 mM dithiotherotol (DTT) is added to the polymerase buffer. […] All results are listed as Polymerase IC50 (μM) values. In Table 1, the term “nd” refers to activity data not determined.

| IC50 [1] | melting point | HCMV polymerase inhibition ([1]; at 20 μm) | SMILES |
| --- | --- | --- | --- |
| 26 µM | 280 to 285 °C (dec.) | – | Cc1ccc2c(O)c(C(=O)NCc3ccc(Cl)cc3)cnc2n1 [Example 1, N-(4-chlorobenzyl)-4-hydroxy-7-methyl[1,8]naphthyridine-3-carboxamide] |
| – | 269 to 270 °C | 39% inhibition | Cc1nc2ncc(C(=O)NCc3ccc(Cl)cc3)c(O)c2cc1Br [Example 2, 6-bromo-N-(4-chlorobenzyl)-4-hydroxy-7-methyl[1,8]naphthyridine-3-carboxamide] |
| 2.1 µM | 279 to 281 °C (dec.) | – | Cc1nc2ncc(C(=O)NCc3ccc(Cl)cc3)c(O)c2cc1C#CCO [Example 3, N-(4-chlorobenzyl)-4-hydroxy-6-(3-hydroxy-1-propynyl)-7-methyl[1,8]naphthyridine-3-carboxamide] |
| 13.7 µM | 276 to 277 °C | – | Cc1nc2ncc(C(=O)NCc3ccc(Cl)cc3)c(O)c2cc1I [Example 4, N-(4-chlorobenzyl)-4-hydroxy-6-iodo-7-methyl[1,8]naphthyridine-3-carboxamide] |
| 8.5 µM | 265 to 267 °C | – | COC(=O)c1cc2c(O)c(C(=O)NCc3ccc(Cl)cc3)cnc2nc1C [Example 5, Methyl 6-{[(4-chlorobenzyl)amino]carbonyl}-5-hydroxy-2-methyl[1,8]naphthyridine-3-carboxylate] |
